Test results published in patent US20210038502A1, “S1PR2 ANTAGONISTS FOR TREATING DISEASES INVOLVING ABNORMAL IMMUNE RESPONSES” (INSERM (Institut National de la Santé et de la Recherche …, priority 2017, published 2021).

Experiments:
tonsil naive T cells = assay: Transwell chemotaxis of tonsil naive T cells towards S1P; type: cell-based, human; settings: for Effect of pharmacological inhibitor on tonsil naive T cell migration to S1P: tonsil naive T cells, 2 h pre-incubation with inhibitor
[1] = system: tonsil CD4+ TRM cells (CD69 positive); assay: Transwell migration of tonsil resident memory T cells (TRM) in presence of S1P; settings: irrespective of CD103 expression
Description: All material was used after obtaining informed consent and the research was conducted in accordance with the Helsinki Declaration. Human peripheral blood was obtained from healthy donors. Cells were ficollized and then washed several times in complete medium before resuspension in chemotaxis medium. Pediatric tonsils were obtained from patients undergoing tonsillectomy and were cut into pieces using a scalpel and then passed through a 70 μM cell strained to produce a cell suspension. Cells were then ficollized and washed before migration studies.
Tonsil lymphocytes or PBMC were suspended in RPMI1640 supplemented with 4 mg/ml fatty acid-free bovine albumin (Sigma, St-Louis, USA). […] Cell migration was analyzed in Transwell chambers (Costar, Cambridge, USA) with 5 μm pore-width polycarbonate filters. […] Transmigrated cells were stained for CD3 (UCHT1), CD4 (RPA-T4), CD8 (RPA-T8), CD45RO (UCHL1), CCR7 (G043H7), CD69 (FN50), CD103 (Ber-act8), CD38 (HIT32) and HLA-DR (LN3) and analyzed/counted by flow cytometry (MACSquant, Miltenyi biotec, Bergisch Gladbach, Germany). […] The percentage of input was calculated as the ratio between the number of cells migrating in a given condition and the number of cells used for the chemotaxis assay.

blood T cells = assay: Transwell chemotaxis of blood T cells (PBMC) towards S1P; type: cell-based, human
Description: T cell subsets were identified by flow cytometry.

tonsil TCM and TEM cells = assay: Transwell migration of tonsil memory T cells (TCM, TEM) in presence of S1P; type: cell-based, human; settings: for Impact on memory T cell migration in the presence of S1P: tonsil memory T cells
[2] = system: act-CD4+ and act-CD8+ T cells; assay: Transwell migration of tonsil recently activated T cells (CD38+HLA-DR+) in presence of S1P; type: cell-based, human
Description: Upon antigen-mediated activation, T cells are retained within secondary lymphoid organs, presumably to sustain their activation and differentiation through serial interactions with antigen presenting cells. Mechanistically, it was previously reported that mouse T cells lose their reactivity during this phase by down regulating S1PR1 expression (Matloubian et al., 2004). We addressed this point in human, exploiting the fact that tonsils contain act-T cells in a variable proportion, classically defined as CD38^+HLA-DR^+.

S1PR1 = S1PR1 (Homo sapiens, UniProt P21453); settings: read-out: Kd of S1P to S1PR1; cited from earlier work
tonsil T cell subsets = assay: Transwell migration of tonsil T cell subsets toward CXCL12 +/- S1P
Description: Results are shown as migration index.
All material was used after obtaining informed consent and the research was conducted in accordance with the Helsinki Declaration. […] Pediatric tonsils were obtained from patients undergoing tonsillectomy and were cut into pieces using a scalpel and then passed through a 70 μM cell strained to produce a cell suspension. Cells were then ficollized and washed before migration studies.
Tonsil lymphocytes or PBMC were suspended in RPMI1640 supplemented with 4 mg/ml fatty acid-free bovine albumin (Sigma, St-Louis, USA). […] Cell migration was analyzed in Transwell chambers (Costar, Cambridge, USA) with 5 μm pore-width polycarbonate filters. […] PBMC or tonsil cells were added to the top chambers of the transwell systems in the presence or absence of the pharmacological inhibitors and incubated at 37° C. for 2 hours. The chemoattractants were then added in the lower chamber and the cells were allowed to migrate for 2 hours. Transmigrated cells were stained for CD3 (UCHT1), CD4 (RPA-T4), CD8 (RPA-T8), CD45RO (UCHL1), CCR7 (G043H7), CD69 (FN50), CD103 (Ber-act8), CD38 (HIT32) and HLA-DR (LN3) and analyzed/counted by flow cytometry (MACSquant, Miltenyi biotec, Bergisch Gladbach, Germany). All antibodies were purchased from BD-Biosciences (San Jose, Calif.), eBioscience (San Diego, Calif.), Beckman-Coulter (Miami, Fla.) or Biolegend (San Diego, Calif.). […] The percentage of input was calculated as the ratio between the number of cells migrating in a given condition and the number of cells used for the chemotaxis assay.

[3] = system: peripheral T cells and NK cells; settings: cited from earlier work

Sequence of S1PR1 (P21453 whole entry, species assumed): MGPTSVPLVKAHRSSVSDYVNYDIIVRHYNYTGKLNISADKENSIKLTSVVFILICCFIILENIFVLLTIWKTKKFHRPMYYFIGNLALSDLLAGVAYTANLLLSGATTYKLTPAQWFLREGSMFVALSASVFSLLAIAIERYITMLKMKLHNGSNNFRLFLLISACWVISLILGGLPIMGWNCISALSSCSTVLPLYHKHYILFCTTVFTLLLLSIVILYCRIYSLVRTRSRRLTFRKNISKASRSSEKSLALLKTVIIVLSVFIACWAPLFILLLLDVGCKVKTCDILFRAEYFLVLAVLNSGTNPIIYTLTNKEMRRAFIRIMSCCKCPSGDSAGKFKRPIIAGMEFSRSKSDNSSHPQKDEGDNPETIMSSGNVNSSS

In the case of `CCCCCCCCCCCCC/C=C/[C@@H](O)[C@@H](N)COP(=O)(O)O` [S1P, Sphingosine-1 phosphate], the “Effect of S1P gradients on tonsil naive T cell chemotaxis” value (tonsil naive T cells; compared to control without S1P) is reported as “strongly increased”, the “S1P concentration giving maximum migration of tonsil naive T cells” value (tonsil naive T cells; transwell, S1P gradient) is reported as 30 to 60 nM and the “Effect of S1P on spontaneous migration of CD4+ TRM cells” value [1] is reported as “inhibited”. For the same compound, the “Response of blood memory T cells to S1P” value (blood T cells; PBMC) was “did not respond”, the “Response of blood naive T cells to S1P” value (blood T cells; PBMC from healthy donors) was “did not respond” and the “Effect of S1P on spontaneous migration of tonsil TCM and TEM cells” value (tonsil TCM and TEM cells; S1P in lower chamber, especially memory CD4 T cells) was “inhibited”. The “Effect of S1P on spontaneous migration of act-CD4+ and act-CD8+ T cells” value [2] was “strongly inhibited”, the Kd (S1PR1) was 8 nM and the “Effect of S1P on CXCL12-induced migration of TEM cells” value (tonsil T cell subsets; S1P 37 nM in lower chamber) was “decreased”. The “Effect of S1P on CXCL12-induced migration of naive CD4 and CD8 T cells” value (tonsil T cell subsets; S1P 37 nM in lower chamber) was “slightly increased”.

With `Cc1nn(C)c2nc(NNC(=O)Nc3cc(Cl)nc(Cl)c3)cc(C(C)C)c12` [JTE-013] the “Effect of pharmacological inhibitor on tonsil naive T cell migration to S1P” value (shortened to “Effect of pharmacological inhibitor”) (tonsil naive T cells; S1P gradient) was “increased”, the “Effect on S1P inhibition of spontaneous migration of CD4+ TRM cells” value ([1]; CD69 positive) was “abrogated” and the “Effect on the inhibitory effect of S1P on TCM and TEM migration” value (tonsil TCM and TEM cells; tonsil TCM and TEM cells) was “abrogated”. The “Effect on S1P inhibition of spontaneous migration of act-CD4+ and act-CD8+ T cells” value ([2]; CD38+HLA-DR+ tonsil T cells) was “curbed” and the “Effect on S1P-mediated decrease of CXCL12-induced migration of TEM and TCM cells” value (tonsil T cell subsets; CXCL12 12 ng/ml, S1P 37 nM, JTE-013 1000 nM for 2 h) was “abrogated”.

With `FC(F)(F)c1cccc(-c2noc(-c3cc(-c4ccccc4)c(C(F)(F)F)s3)n2)c1` [SEW2871] the “Effect of pharmacological inhibitor” value (tonsil naive T cells; S1P gradient) was “strongly inhibited” and the “Impact on memory T cell migration in the presence of S1P” value (tonsil TCM and TEM cells) was “negative impact”.

With `Cc1cc(CN)cc(C)c1NC(=O)c1ccc(-c2cc(Cl)ccc2Cl)o1` [CYM50358] the “Effect of pharmacological inhibitor” value (tonsil naive T cells; S1P gradient) was “insensitive”.

In the case of `CCCCCCCCc1ccc(CCC(N)(CO)CO)cc1` [FTY720], the “Effect of pharmacological inhibitor” value (tonsil naive T cells; S1P gradient) is listed as “strongly inhibited”, the “Effect on peripheral TEM cells and NK cells in treated patients” value [3] is listed as “does not affect” and the “Effect on peripheral naive and central memory T cells in treated patients” value [3] is listed as “quick decrease”. For the same compound, the “Impact on memory T cell migration in the presence of S1P” value (tonsil TCM and TEM cells) was “negative impact”.
